# Key:
# [1] = system: ReNcell VM (RVM) cells; experiment: 24 h cytotoxicity, CCK-8 (WST-8) or PrestoBlue; format: cell-based, human; conditions: 24 h treatment
# Experimental: Sterile peptide solutions for cytotoxicity testing were prepared from stock by diluting with deionized (DI) water and filtering through a 0.22 µm polytetrafluoroethylene (PTFE) membrane. Because of aggregations and decreased solubility in water at high concentrations, a standard curve was used to determine the concentrations of the filtered peptides. Briefly, 5 µL of sample or serial diluted peptide stocks with known concentrations prepared from weighed powder, were aliquoted into wells of a 96-well half area plate. Then, 45 µL of methanol was added to each well to fully solubilize all the peptides. Absorbance measurements at 554 nm (650 nm as reference) were taken on a Tecan infinite M200 Pro plate reader (Tecan Group, Männedorf, Switzerland). After the calculation of stock concentrations, peptides were further diluted with cell culture media for treatment.
# There were 10,000 ReNcell VM cells (passages below 15) that were seeded in each well, with 100 µL of RVM cell culture media supplemented with the growth factors bFGF and EGF.
# For the PepB series (Figure 1 and Table 1) testing, the RVM cells were incubated with peptides for 24 h. […] After incubation for 1 h, for WST-8, a Tecan infinite M200 Pro plate reader was utilized to acquire absorbance measurements at 450 nm (650 nm as reference) and normalized to the untreated controls.
# [2] = system: β-III tubulin expression in ReNcell VM; experiment: RVM differentiation, quantitative immunocytochemistry for β-III tubulin; format: cell-based, human; conditions: 0.1 µM, N = 3
# Experimental: (§1) The laminin solution was removed prior to cell seeding. 2 × 10^4 ReNcell VM between passages 8 and 10 were seeded in the 8-well chamber slides with 400 µL of proliferation media. The cells were grown to 70% confluency. Differentiation for RVM is initiated by growth factor withdrawal or in combination with RA or RA-PepB3. The media were replaced every 48–72 h for the duration of the differentiation. Compound treatment was only performed for one week, at which point all cells were commonly grown in growth factor withdrawal media.
# (§2) Cells were fixed with 4% PFA at room temperature for 15 min. After rinsing with PBS, blocking and permeabilization were done simultaneously using 5% donkey serum and 0.3% Triton-X 100 in PBS for 30 min at room temperature. The cells were rinsed with PBS and primary antibodies were applied for 2 h at room temperature. The cells were rinsed again with PBS and secondary antibodies were applied for 1 h at room temperature. […] The cells positive for β-III tubulin and MAP2 were counted using ImageJ. […] The fluorescence channels were separated, background removed, and contrast enhanced. The number of DAPI positive cells were counted using an in-house coded nuclei counter. […] The channels were then re-merged and the cells positive for β-III tubulin and MAP2 were manually counted. […]
# [3] = system: MAP2 expression in ReNcell VM; experiment: RVM differentiation, quantitative immunocytochemistry for MAP2; format: cell-based, human; conditions: 0.1 µM, compound treatment for the initial one week, four weeks of differentiation, N = 3
# Experimental: as §1, §2
# [4] = system: ReNcell VM (RVM) cells; conditions: PrestoBlue, N = 3
# [5] = parameters: method as in PMID 1898007; conditions: reported solubility limit in water; cited from earlier work
# Text: Neurogenesis is an important biological process under intense investigation. Neurodegenerative diseases such as Alzheimer’s and Parkinson’s are devastating due to the fact that neurons cannot be replaced in the diseased areas of the brain [1]. […] To exert its effects ... || Retinoic acid is a potent morphogen used to differentiate stem cells towards the neural lineage.
# [6] = system: undifferentiated RVM cells cultured in Matrigel; conditions: microarray chip, read-out: viability IC50; cited from earlier work
structure (smiles),measurement,setting,value
"CC1=C(/C=C/C(C)=C/C=C/C(C)=C/C(=O)O)C(C)(C)CCC1 [RA, All-Trans-Retinoic Acid]",fraction of RVM cells killed,"[1]; 10 µM, PrestoBlue or Cell Counting Kit-8, N = 3",more than 50%
same,concentration at which RVM cells started significantly dying,"[1]; 0–10 µM tested, N = 3",5 µM
same,"β-III tubulin expression, fold versus growth factor withdrawal control","[2]; compound treatment for the initial one week, four weeks of differentiation",2 fold
same,"β-III tubulin expression, fold versus no growth factor control",[2]; one week of differentiation,1.5 fold
same,"MAP2 expression, fold versus control",[3],2.5 fold
same,proliferation versus controls after 24 h,[4]; 5 and 10 µM RA,significantly less proliferation than the controls
same,proliferation versus controls by day three,"[4]; all tested concentrations of RA, medium refreshed every 48 h",significantly reduced rates of proliferation
same,solubility in aqueous environments,[5],< 0.2 µM
same,IC50,[6],740 nM

# Source: article PMC6163344, “A Novel Cell Penetrating Peptide for the Differentiation of Human Neural Stem Cells” (Biomolecules, 2018)
